pEC50: −log10 of the molar value.
Tested on: recombinant NL4-3 virus (Renilla luciferase in nef, Gag P373S)
Test: HIV cell culture assay (luciferase activity in MT-2 cells infected with NLRluc recombinant virus)
Type: cell-based
Conditions: NL43, MT-2 cells infected 4-5 days with NLRluc recombinant virus, class symbol
Procedure, shortened: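 MT-2 cells in RPMI/10% FBS were infected with recombinant NL4-3 (NLRluc), produced by 293T transfection and titered in MT-2 by luciferase. Serial inhibitor dilutions were present throughout a 4–5 day infection. Antiviral activity was quantified as Renilla luciferase signal via a modified Dual Luciferase read.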

| Structure (SMILES) | pEC50 |
| --- | --- |
| C=C(C)[C@@H]1CC[C@]2(CNCC3(CN4CCCC4)CC3)CC[C@]3(C)[C@H](CC[C@@H]4[C@@]5(C)CC=C(c6ccc(C(=O)O)cc6)C(C)(C)[C@@H]5CC[C@]43C)[C@@H]12 [Example 66, 4-((1R,3aS,5aR,5bR,7aR,11aS,11bR,13aR,13bR)-5a,5b,8,8,11a-pentamethyl-1-(prop-1-en-2-yl)-3a-(((1-(pyrrolidin-1-ylmethyl)cyclopropyl)methylamino)methyl)-2,3,3a,4,5,5a,5b,6,7,7a,8,11,11a,11b,12,13,13a,13b-octadecahydro-1H-cyclopenta[a]chrysen-9-yl)benzoic acid] | > 7.00 |
| C=C(C)[C@@H]1CC[C@]2(CN3CCOC3=O)CC[C@]3(C)[C@H](CC[C@@H]4[C@@]5(C)CC=C(c6ccc(C(=O)O)cc6)C(C)(C)[C@@H]5CC[C@]43C)[C@@H]12 [Example 182, 4-((1R,3aS,5aR,5bR,7aR,11aS,11bR,13aR,13bR)-5a,5b,8,8,11a-pentamethyl-3a-((2-oxooxazolidin-3-yl)methyl)-1-(prop-1-en-2-yl)-2,3,3a,4,5,5a,5b,6,7,7a,8,11,11a,11b,12,13,13a,13b-octadecahydro-1H-cyclopenta[a]chrysen-9-yl)benzoic acid] | > 7.00 |
| C=C(C)[C@@H]1CC[C@]2(CNCC(=O)N(C)C)CC[C@]3(C)[C@H](CC[C@@H]4[C@@]5(C)CC=C(c6ccc(C(=O)O)cc6)C(C)(C)[C@@H]5CC[C@]43C)[C@@H]12 [Example 39, 4-((1R,3aS,5aR,5bR,7aR,11aS,11bR,13aR,13bR)-3a-((2-(dimethylamino)-2-oxoethylamino)methyl)-5a,5b,8,8,11a-pentamethyl-1-(prop-1-en-2-yl)-2,3,3a,4,5,5a,5b,6,7,7a,8,11,11a,11b,12,13,13a,13b-octadecahydro-1H-cyclopenta[a]chrysen-9-yl)benzoic acid] | > 7.00 |
| C=C(C)[C@@H]1CC[C@]2(CNCCS(=O)(=O)N3CCNCC3)CC[C@]3(C)[C@H](CC[C@@H]4[C@@]5(C)CC=C(c6ccc(C(=O)O)cc6)C(C)(C)[C@@H]5CC[C@]43C)[C@@H]12 [Example 43, 4-((1R,3aS,5aR,5bR,7aR,11aS,11bR,13aR,13bR)-5a,5b,8,8,11a-pentamethyl-3a-((2-(piperazin-1-ylsulfonyl)ethylamino)methyl)-1-(prop-1-en-2-yl)-2,3,3a,4,5,5a,5b,6,7,7a,8,11,11a,11b,12,13,13a,13b-octadecahydro-1H-cyclopenta[a]chrysen-9-yl)benzoic acid] | > 7.00 |
| C=C(C)[C@@H]1CC[C@]2(CNCCN3CCS(=O)(=O)CC3)CC[C@]3(C)[C@H](CC[C@@H]4[C@@]5(C)CC=C(c6ccc(C(=O)O)c(F)c6)C(C)(C)[C@@H]5CC[C@]43C)[C@@H]12 [Example 95, 4-((1R,3aS,5aR,5bR,7aR,11aS,11bR,13aR,13bR)-3a-(((2-(1,1-dioxido-4-thiomorpholinyl)ethyl)amino)methyl)-1-isopropenyl-5a,5b,8,8,11a-pentamethyl-2,3,3a,4,5,5a,5b,6,7,7a,8,11,11a,11b,12,13,13a,13b-octadecahydro-1H-cyclopenta[a]chrysen-9-yl)-2-fluorobenzoic acid] | > 7.00 |
| C=C(C)[C@@H]1CC[C@]2(CNCCC(=O)NC)CC[C@]3(C)[C@H](CC[C@@H]4[C@@]5(C)CC=C(c6ccc(C(=O)O)cc6)C(C)(C)[C@@H]5CC[C@]43C)[C@@H]12 [Example 127, 4-((1R,3aS,5aR,5bR,7aR,11aS,11bR,13aR,13bR)-5a,5b,8,8,11a-pentamethyl-3a-((3-(methylamino)-3-oxopropylamino)methyl)-1-(prop-1-en-2-yl)-2,3,3a,4,5,5a,5b,6,7,7a,8,11,11a,11b,12,13,13a,13b-octadecahydro-1H-cyclopenta[a]chrysen-9-yl)benzoic acid] | > 7.00 |

Source: patent US8748415B2 (priority 2011, dated 2014)
